Experimental data from US12084473B2, “β-D-2′-deoxy-2′-α-fluoro-2′-β-C-substituted-2-modified-N6-substituted purine nucleotides for HCV treatment” (Atea Pharmaceuticals, Inc., priority 2015, dated 2024).
Read-outs that look alike come from different tables or passages of the source.

What was measured:
[1] = test system: HCV genotype 1b luciferase reporter replicon; assay: microbe, parasite or virus in culture; assay type: cell-based
Protocol: (§1) The plates were cultured for 24 hours prior to the addition of compounds. Six serial one half log dilutions of the test articles (high test concentration of 100.0 μM or high test concentration of 1.0 μM) and human interferon-alpha2b (high test 10.0 U/ml) were prepared in cell culture medium and added to the cultured cells in triplicate wells for each dilution. Six wells in the test plates received medium alone as an untreated control. Following 72 hours of culture in the presence of compound, one of the plates was used for the determination of cytotoxicity by staining with XTT and the other for antiviral efficacy by determination of luciferase reporter activity. Cytotoxicity and efficacy data were collected and imported into a customized Excel workbook for determination of the TC50 and EC50 values. […] The y-axis is the percent of virus control and the x-axis is the concentration of drug in μM. […] The y-axis is the percent of virus control and the x-axis is the concentration of drug in M.

[2] = test system: HCV genotype 1b luciferase reporter replicon; assay: microbe, parasite or virus in culture; assay type: cell-based; conditions: Hepatitis C virus, HuH-7-Luc/Neo-ET, 72 h, read-out: HCV Replicon EC50/EC95: EC50
[3] = Cytotoxicity by XTT staining in replicon cells; conditions: human
Protocol: as §1

[4] = test system: micro-patterned human hepatocyte co-cultures; assay: Human Hepatocyte Co-Cultures (HepatoPac): cytotoxicity and hepatocyte health; assay type: cell-based; conditions: for IC50: Homo sapiens, Hepatocyte
Protocol: Cytotoxicity and hepatocyte health were assessed in triplicate by measuring ALT leakage, urea production, albumin secretion and cellular ATP contents in micro-patterned human hepatocyte co-cultures (HepatoPac®, Hepregen Corporation) prepared by seeding cryopreserved human hepatocytes (single donor) and 3T3 J2 mouse fibroblasts in microtiter plates according to procedures established by Hepregen. Culture media was replaced with fresh media containing TA, test article, (0, 1, 10 or 30 μM) every 2 or 3 days through day 16. […] Cellular ATP levels were measured on days 9 and 21. ATP signals in stromal-only control cultures (murine 3T3 fibroblasts) were subtracted from those of human HepatoPac co-cultures to obtain hepatocyte-specific effects. See, Table 4, 5 and 6 below.

[5] = Hepatitis C virus; Huh-7 luc/neo ET cells, 72 hours, luciferase; read-out: HCV Replicon EC50/EC95: EC95

`CCN(C)c1nc(N)nc2c1ncn2[C@@H]1OC(COP(=O)(N[C@@H](C)C(=O)OC(C)C)Oc2ccccc2)[C@@H](O)[C@@]1(C)F` (stereo partly drawn) [Compound 18, isopropyl ((((R,S)-(2R,3R,4R,5R)-5-(2-amino-6-(N-methyl-ethylamino)-9H-purin-9-yl)-4-fluoro-3-hydroxy-4-methyltetrahydrofuran-2-yl)methoxy)-phenoxy-phosphoryl)-L-alaninate] showed an EC95 [1, 5] of 219 nM, an EC50 [2] of 48 nM and a CC50 at 72 h [3] of 90000 nM.
With `CCOc1nc(N)nc2c1ncn2[C@@H]1O[C@@H]2CO[P@](=O)(OC(C)C)O[C@H]2[C@@]1(C)F` the EC95 [1, 5] was 259 nM, the EC50 [2] was 45 nM and the CC50 at 72 h [3] was > 100000 nM.
For `C[C@@]1(F)[C@H](O)C(CO)O[C@H]1n1cnc2c(N)nc(N)nc21` (some centres unmarked), the EC50 [2] was 6700 nM and the CC50 at 72 h [3] was > 100000 nM.
In the case of `CNc1nc(N)nc2c1ncn2[C@@H]1OC(COP(=O)(N[C@@H](C)C(=O)OC(C)C)Oc2ccccc2)[C@@H](O)[C@@]1(C)F` (mixture of isomers) [Compound 5, isopropyl ((((R,S)-(2R,3R,4R,5R)-5-(2-amino-6-(methylamino)-9H-purin-9-yl)-4-fluoro-3-hydroxy-4-methyltetrahydrofuran-2-yl)methoxy)-phenoxy-phosphoryl)-L-alaninate], the EC95 [1, 5] is reported as 124 nM, the EC50 ([1]; Hepatitis C virus; read-out: EC50 in a replicon assay) is reported as 26 nM and the “Fold increase in activity compared to parent nucleoside” value (shortened to “Fold increase … to parent nucleoside”) ([1]; Table 7) is reported as >600. For the same molecule, the “fold increase in activity (versus parent nucleoside)” value ([1]; listed as stabilized phosphate prodrug (phosphoramidate) of β-D-2′-deoxy-2′-α-fluoro-2′-β-) was ≥ 870, the “fold increase in activity (versus parent nucleoside)” value ([1]; listed as stabilized racemic phosphate prodrug (phosphoramidate) of β-D-2′-deoxy-2′-α-fluo) was ≥ 600 and the EC50 [2] was 26 nM. For the same molecule, the CC50 at 72 h [3] was > 100000 nM.
With `CCCN(C)c1nc(N)nc2c1ncn2[C@@H]1OC(COP(=O)(N[C@@H](C)C(=O)OC(C)C)Oc2ccccc2)[C@@H](O)[C@@]1(C)F` (stereo partly drawn) [Compound 20, isopropyl ((((R,S)-(2R,3R,4R,5R)-5-(2-amino-6-(N-methyl-propylamino)-9H-purin-9-yl)-4-fluoro-3-hydroxy-4-methyltetrahydrofuran-2-yl)methoxy)-phenoxy-phosphoryl)-L-alaninate] the EC95 [1, 5] was 315 nM, the EC50 [2] was 73 nM and the CC50 at 72 h [3] was > 100000 nM.
In the case of `C#C[C@@]1(F)[C@H](O)C(COP(=O)(N[C@@H](C)C(=O)OC(C)C)Oc2ccccc2)O[C@H]1n1cnc2c(NC)nc(N)nc21` (stereo partly drawn) [Compound 46, isopropyl ((((R,S)-(2R,3R,4R,5R)-5-(2-amino-6-methylamino-9H-purin-9-yl)-4-fluoro-3-hydroxy-4-ethynyltetrahydrofuran-2-yl)methoxy)-phenoxy-phosphoryl)-L-alaninate], the EC95 [1, 5] is reported as 961 nM, the EC50 [2] is reported as 224 nM and the CC50 at 72 h [3] is reported as > 100000 nM.
For `CN(C)c1nc(N)nc2c1ncn2[C@@H]1O[C@H](CO)[C@@H](O)[C@@]1(C)F` [Compound 6, (2R,3R,4R,5R)-5-(2-amino-6-(dimethylamino)-9H-purin-9-yl)-4-fluoro-2-(hydroxymethyl)-4-methyltetrahydrofuran-3-ol], the EC50 ([1]; Hepatitis C virus, parent nucleosides; read-out: EC50 in a replicon assay) was 10700 nM, the EC50 [2] was 10700 nM and the CC50 at 72 h [3] was > 100000 nM.
With `CN(c1nc(N)nc2c1ncn2[C@@H]1O[C@H](CO)[C@@H](O)[C@@]1(C)F)C1CC1` [Compound 8, (2R,3R,4R,5R)-5-(2-Amino-6-(N-methyl-cyclopropylamino)-9H-purin-9-yl)-4-fluoro-2-(hydroxymethyl)-4-methyltetrahydrofuran-3-ol] the EC50 [2] was 5560 nM and the CC50 at 72 h [3] was > 100000 nM.
With `CCN(C)c1nc(N)nc2c1ncn2[C@@H]1O[C@H](CO)[C@@H](O)[C@@]1(C)F` [Compound 17, (2R,3R,4R,5R)-5-(2-amino-6-(N-methyl-ethylamino)-9H-purin-9-yl)-4-fluoro-2-(hydroxymethyl)-4-methyltetrahydrofuran-3-ol] the EC95 [1, 5] was 65400 nM, the EC50 [2] was 11500 nM and the CC50 at 72 h [3] was > 100000 nM.
In the case of `COc1nc(N)nc2c1ncn2[C@@H]1O[C@H](COP(=O)(N[C@@H](C)C(=O)OCC(C)(C)C)Oc2cccc3ccccc23)[C@@H](O)[C@@]1(C)O` (some centres unmarked) [INX-189], the IC50 ([4]; 48 h, Table 5, Day 2, read-out: Effect on Albumin Secretion, 50% Inhibitory Concentration (IC50)) is reported as 13600 nM, the IC50 ([4]; 48 h, Table 6, Day 2, read-out: Effect on Albumin Secretion, 50% Inhibitory Concentration (IC50)) is reported as > 30000 nM and the IC50 ([4]; 120 h, Table 5, Day 5, read-out: Effect on Albumin Secretion, 50% Inhibitory Concentration (IC50)) is reported as 3100 nM. The IC50 ([4]; 120 h, Table 6, Day 5, read-out: Effect on Albumin Secretion, 50% Inhibitory Concentration (IC50)) was 4200 nM, the IC50 ([4]; 168 h, Table 5, Day 7, read-out: Effect on Albumin Secretion, 50% Inhibitory Concentration (IC50)) was 3200 nM and the IC50 ([4]; 168 h, Table 6, Day 7, read-out: Effect on Albumin Secretion, 50% Inhibitory Concentration (IC50)) was 1800 nM. For the same molecule, the IC50 ([4]; 216 h, Day 9, read-out: Effect on Cellular ATP Concentrations, 50% Inhibitory Concentration (IC50)) was 8100 nM, the IC50 ([4]; 216 h, Table 5, Day 9, read-out: Effect on Albumin Secretion, 50% Inhibitory Concentration (IC50)) was 2400 nM and the IC50 ([4]; 216 h, Table 6, Day 9, read-out: Effect on Albumin Secretion, 50% Inhibitory Concentration (IC50)) was 1800 nM. For the same molecule, the IC50 ([4]; 288 h, Table 6, Day 12, read-out: Effect on Albumin Secretion, 50% Inhibitory Concentration (IC50)) was 1300 nM, the IC50 ([4]; 384 h, Table 6, Day 16, read-out: Effect on Albumin Secretion, 50% Inhibitory Concentration (IC50)) was < 1000 nM and the IC50 ([4]; 504 h, Day 21, read-out: Effect on Cellular ATP Concentrations, 50% Inhibitory Concentration (IC50)) was 100 nM. For the same molecule, the IC50 ([4]; 504 h, Table 6, Day 21, read-out: Effect on Albumin Secretion, 50% Inhibitory Concentration (IC50)) was < 1000 nM and the “cytotoxicity to human co-cultured hepatocytes (in words)” value ([4]; text b588) was “highly cytotoxic”.
For `CNc1nc(N)nc2c1ncn2[C@@H]1OC(CO[P@](=O)(N[C@@H](C)C(=O)OC(C)C)Oc2ccccc2)[C@@H](O)[C@@]1(C)F` (some centres unmarked) [Compound 5-1], the EC95 [1, 5] was 282 nM, the “Fold increase … to parent nucleoside” value ([1]; Table 7) was >280 and the EC50 [2] was 55.1 nM. The CC50 at 72 h [3] was > 100000 nM.
In the case of `C#C[C@@]1(F)[C@H](O)C(COP(=O)(N[C@@H](C)C(=O)OC(C)C)Oc2ccccc2)O[C@H]1n1cnc2c(N(C)C)nc(N)nc21` (stereo partly drawn) [Compound 45, isopropyl ((((R,S)-(2R,3R,4R,5R)-5-(2-amino-6-dimethylamino-9H-purin-9-yl)-4-fluoro-3-hydroxy-4-ethynyltetrahydrofuran-2-yl)methoxy)-phenoxy-phosphoryl)-L-alaninate], the EC95 [1, 5] is reported as 876 nM, the EC50 [2] is reported as 160 nM and the CC50 at 72 h [3] is reported as 680 nM.
In the case of `C#C[C@@]1(F)[C@H](O)[C@@H](CO)O[C@H]1n1cnc2c(NC)nc(N)nc21` [Compound 42], the EC95 [1, 5] is reported as 20400 nM, the EC50 [2] is reported as 4180 nM and the CC50 at 72 h [3] is reported as > 100000 nM.
With `CNc1nc(NC(=O)C(C)C)nc2c1ncn2[C@@H]1OC(COP(=O)(N[C@@H](C)C(=O)OC(C)C)Oc2ccccc2)[C@@H](O)[C@@]1(C)F` (stereo partly drawn) [Compound 16, isopropyl ((((R,S)-(2R,3R,4R,5R)-5-(2-isobutyramido-6-methylamino-9H-purin-9-yl)-4-fluoro-3-hydroxy-4-methyltetrahydrofuran-2-yl)methoxy)-phenoxy-phosphoryl)-L-alaninate] the EC95 [1, 5] was 3690 nM, the EC50 [2] was 576 nM and the CC50 at 72 h [3] was > 100000 nM.
With `CC(C)OC(=O)[C@H](C)NP(=O)(OCC1O[C@@H](n2cnc3c(N(C)C4CC4)nc(N)nc32)[C@](C)(F)[C@@H]1O)Oc1ccccc1` (stereo partly drawn) [Compound 9, isopropyl ((((R,S)-(2R,3R,4R,5R)-5-(2-amino-6-(N-methyl-cyclopropylamino)-9H-purin-9-yl)-4-fluoro-3-hydroxy-4-methyltetrahydrofuran-2-yl)methoxy)-phenoxy-phosphoryl)-L-alaninate] the EC50 ([1]; Hepatitis C virus, read-out: EC50 in a replicon assay) was 7 nM, the EC95 [1, 5] was 54 nM and the “Fold increase … to parent nucleoside” value ([1]; Table 7) was >600. The EC50 [2] was 9.1 nM and the CC50 at 72 h [3] was > 100000 nM.
With `CCCN(C)c1nc(N)nc2c1ncn2[C@@H]1O[C@H](CO)[C@@H](O)[C@@]1(C)F` [Compound 19, (2R,3R,4R,5R)-5-(2-amino-6-(N-methyl-propylamino)-9H-purin-9-yl)-4-fluoro-2-(hydroxymethyl)-4-methyltetrahydrofuran-3-ol] the EC50 [2] was 7470 nM and the CC50 at 72 h [3] was > 100000 nM.
In the case of `CC(C)OC(=O)[C@H](C)N[P@@](=O)(OCC1O[C@@H](n2ccc(=O)[nH]c2=O)[C@](C)(F)[C@@H]1O)Oc1ccccc1` (some centres unmarked), the EC95 [1, 5] is reported as 310 nM, the EC50 [2] is reported as 52 nM and the CC50 at 72 h [3] is reported as > 100000 nM.
In the case of `CNc1nc(NC(=O)C(C)C)nc2c1ncn2[C@@H]1O[C@H](CO)[C@@H](O)[C@@]1(C)F` [Compound 15, (2R,3R,4R,5R)-5-(2-isobutyramido-6-methylamino-9H-purin-9-yl)-4-fluoro-2-(hydroxymethyl)-4-methyltetrahydrofuran-3-ol], the EC50 [2] is reported as > 100000 nM and the CC50 at 72 h [3] is reported as > 100000 nM.
